“And” between values parts separate entries of the source, which are not always exact repeats. Equal values may be shown once.
molecular target: human mGluR5A (Homo sapiens, UniProt P41594); experiment: mGluR5 FLIPR Assay; format: cell-based; conditions: positive modulator activity; HEK293 (ZF) cells with human mGluR5A and rat GLAST; Ca++ response to ~EC10 glutamate
Experimental: HEK293 (ZF) cells stably transfected with human mGluR5A (pIRES neo) and the rat glutamate-aspartate transporter (GLAST; pIRES puro) are grown in a monolayer culture at 37° C. in 5% CO2 and fed with Minimum Essential Medium (MEM) supplemented with 10% dialysed fetal bovine serum. 24 hours prior to assay, cells are enzymatically dissociated from the culture flask (Trypsin, 0.25%), spun down (1000 rpm, 3 min), resuspended, and plated on Greiner black clear bottomed PDL-coated 384-well plates at a density of 30 thousand cells/well. […] Plates are incubated in dye at 37° C. in 5% CO2 for 60 minutes prior to delivery of test compounds in assay buffer. Test compounds are incubated with cells in the presence of dye for 10 minutes prior to being read on the FLIPR platform (Molecular Devices). A Ca^++ signal is induced in the assay plates via the delivery of an ˜EC10 concentration of the endogenous agonist 1-glutamate; images are acquired at 1 Hz for 100 seconds post-delivery of agonist stimulus. Positive modulator activity (i.e. the ability of test compounds to increase the Ca^++ response to a sub-maximal concentration of agonist) is normalized to a saturating concentration of a known mGluR5 PAM run in each assay plate. An EC50 concentration of test compounds is derived from 4-parameter logistic curve fits of transformed fluoresence data via proprietary software suite.

human mGluR5A, sequence (P41594 21-1180 isoform P41594-2): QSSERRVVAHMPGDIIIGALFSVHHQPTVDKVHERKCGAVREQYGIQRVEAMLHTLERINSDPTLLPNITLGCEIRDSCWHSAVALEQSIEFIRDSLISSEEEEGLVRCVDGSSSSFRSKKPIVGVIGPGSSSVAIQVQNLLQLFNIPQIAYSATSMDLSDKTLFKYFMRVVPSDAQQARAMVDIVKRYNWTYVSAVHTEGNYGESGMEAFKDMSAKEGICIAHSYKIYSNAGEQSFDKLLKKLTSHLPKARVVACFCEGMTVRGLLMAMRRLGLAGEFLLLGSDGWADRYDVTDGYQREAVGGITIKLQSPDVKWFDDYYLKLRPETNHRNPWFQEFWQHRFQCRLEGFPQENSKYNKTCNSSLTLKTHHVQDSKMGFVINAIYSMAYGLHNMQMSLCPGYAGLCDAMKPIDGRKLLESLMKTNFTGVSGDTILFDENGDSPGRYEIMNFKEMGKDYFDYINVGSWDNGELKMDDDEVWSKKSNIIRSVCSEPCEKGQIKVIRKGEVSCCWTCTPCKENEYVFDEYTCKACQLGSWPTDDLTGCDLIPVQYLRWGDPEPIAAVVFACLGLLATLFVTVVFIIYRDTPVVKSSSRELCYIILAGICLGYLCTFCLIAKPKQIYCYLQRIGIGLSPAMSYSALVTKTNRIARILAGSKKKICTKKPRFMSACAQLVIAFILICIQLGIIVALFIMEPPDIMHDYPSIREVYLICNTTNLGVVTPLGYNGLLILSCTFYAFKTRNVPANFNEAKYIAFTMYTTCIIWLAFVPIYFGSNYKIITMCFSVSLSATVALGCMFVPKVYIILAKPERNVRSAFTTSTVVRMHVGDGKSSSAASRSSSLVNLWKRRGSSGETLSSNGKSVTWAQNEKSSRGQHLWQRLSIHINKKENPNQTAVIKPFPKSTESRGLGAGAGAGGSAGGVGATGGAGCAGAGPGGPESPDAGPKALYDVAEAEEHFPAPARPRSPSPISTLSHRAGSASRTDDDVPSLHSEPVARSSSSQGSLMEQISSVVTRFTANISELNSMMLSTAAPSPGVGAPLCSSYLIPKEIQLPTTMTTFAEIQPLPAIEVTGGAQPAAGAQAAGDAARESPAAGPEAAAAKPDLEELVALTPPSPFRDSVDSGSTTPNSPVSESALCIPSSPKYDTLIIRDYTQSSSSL

SMILES	EC50
N#Cc1cccc(C#Cc2cc([C@H]3NC(=O)O[C@@H]3c3cccnc3)ccn2)c1 [Example 255]	> 1 µM
O=C1N[C@H](c2cc(C#Cc3cccnc3)cnc2F)[C@@H](c2cccc(F)c2)O1 [Example 139, (4R,5R)-4-(2-Fluoro-5-(pyridin-3-ylethynyl)pyridin-3-yl)-5-(3-fluorophenyl)oxazolidin-2-one]	< 0.1 µM
O=C1N[C@H](c2ccnc(C#Cc3cncc(F)c3)c2)[C@@H](c2cccnc2)O1 [Example 253]	> 1 µM
N#Cc1cccc(C#Cc2cncc([C@H]3NC(=O)O[C@@H]3c3cc(F)cc(F)c3)c2)c1 [Example 174]	> 1 µM
COc1cccc([C@H]2OC(=O)N[C@@H]2c2cccc(C#Cc3cnccc3OC)c2)c1 [Example 92, (4R,5R)-5-(3-Methoxyphenyl)-4-(3-((4-methoxypyridin-3-yl)ethynyl)phenyl)oxazolidin-2-one]	> 1 µM
O=C1N[C@H](c2cccc(C#Cc3ccccc3)n2)[C@@H](c2cc(F)cc(F)c2)O1 (single isomer, unassigned) [Example 315]	> 1 µM
O=C1N[C@H](c2cncc(C#Cc3ccccn3)c2)[C@@H](c2ccc(F)cc2F)O1 [Example 183]	< 0.1 µM
O=C1N[C@H](c2cccc(C#Cc3cccnc3)n2)[C@@H](c2ccccc2)O1 (single isomer, unassigned) [Example 26]	0.1 to 1 µM and 0.367 µM
O=C1N[C@H](c2cccc(C#Cc3ccccc3)c2)[C@H](c2cnccn2)O1 [Example 247]	> 1 µM
O=C1N[C@H](c2cccc(C#Cc3ccccc3)c2)[C@@H](c2cccnn2)O1 [Example 243]	0.1 to 1 µM and 0.272 µM
O=C1N[C@H](c2cccc(C#Cc3ccccn3)n2)[C@@H](c2ccccc2)O1 (single isomer, unassigned) [Example 24]	> 1 µM
COc1cccc([C@H]2OC(=O)N[C@@H]2c2cncc(C#Cc3csc(C)n3)c2)c1 (single isomer, unassigned) [Example 31]	> 1 µM
COc1cccc([C@@H]2OC(=O)N[C@H]2c2cccc(C#Cc3cccc(C(F)(F)F)c3)c2)c1 [Example 130, (4S,5S)-5-(3-methoxyphenyl)-4-(3-((3-(trifluoromethyl)phenyl)ethynyl)phenyl)oxazolidin-2-one]	> 1 µM
O=C1N[C@H](c2cccc(C#Cc3ccccc3)n2)[C@@H](c2ccc(F)cc2)O1 (single isomer, unassigned) [Example 135]	< 0.1 µM and 0.0085 µM
O=C1N[C@H](c2ccnc(C#Cc3cccnc3)c2)[C@@H](c2cccc(F)c2)O1 [Example 258]	< 0.1 µM
O=C1N[C@H](c2nccc(C#Cc3ccccc3)n2)[C@@H](c2cccc(F)c2)O1 (racemic) [Example 272]	> 1 µM
COc1cccc([C@@H]2OC(=O)N[C@@H]2c2cccc(C#Cc3ccccc3)c2)c1 (single isomer, unassigned) [Example 3]	0.1 to 1 µM and 0.283 µM
COc1cccc([C@H]2OC(=O)N[C@@H]2c2cccc(C#Cc3ccnc(C#N)c3)c2)c1 [Example 56, 4-((3-((4R,5R)-5-(3-Methoxyphenyl)-2-oxooxazolidin-4-yl)phenyl)ethynyl)nicolinonitrile]	> 1 µM
O=C1N[C@H](c2cc(C#Cc3ccc(F)cc3)ccn2)[C@@H](c2ccc(F)cc2)O1 (single isomer, unassigned) [Example 357]	< 0.1 µM
O=C1N[C@@H](c2cncc(C#Cc3ccccc3)c2)[C@H](c2cccnc2)O1 [Example 199]	> 1 µM
C[C@]1(c2cc(F)ccc2F)OC(=O)N[C@@H]1c1cncc(C#Cc2ccccc2)c1 [Example 289]	< 0.1 µM
O=C1N[C@@H](c2cccc(C#Cc3cccnc3)c2)[C@H](c2ccncc2)O1 [Example 236]	> 1 µM
O=C1N[C@H](c2cncc(C#Cc3ccccc3)c2)[C@@H](c2ccccc2)O1 (single isomer, unassigned) [Example 38]	> 1 µM
Cn1nnc([C@H]2OC(=O)N[C@@H]2c2cccc(C#Cc3ccccc3)c2)n1 [Example 169, (4R,5S)-5-(2-Methyl-2H-tetrazol-5-yl)-4-(3-(phenylethynyl)phenyl)oxazolidin-2-one]	> 1 µM
O=C1N[C@@H](c2cccc(C#Cc3ccccc3)c2)[C@H](c2nc(-c3ccccc3)no2)O1 [Example 159]	> 1 µM

SMILES	EC50
COc1cccc([C@H]2OC(=O)N[C@@H]2c2cccc(C#Cc3ccccc3OC)c2)c1 [Example 91, (4R,5R)-5-(3-Methoxyphenyl)-4-(3-((2-methoxyphenyl)ethynyl)phenyl)oxazolidin-2-one]	0.1 to 1 µM
C[C@@]1(c2cncc(C#Cc3ccccc3)c2)NC(=O)O[C@H]1c1ccccc1 (single isomer, unassigned) [Example 137]	0.1 to 1 µM
O=C1N[C@H](c2cc(C#Cc3cccnc3)cnc2F)[C@@H](c2ccc(Cl)cc2)O1 [Example 146, (4R,5R)-5-(4-Chlorophenyl)-4-(2-fluoro-5-(pyridin-3-ylethynyl)pyridin-3-yl)oxazolidin-2-on]	< 0.1 µM
COc1cccc([C@H]2OC(=O)N[C@@H]2c2cccc(C#Cc3cccc(N(C)C)c3)c2)c1 [Example 58, (4R,5R)-4-(3-((3-(Dimethylamino)phenyl)ethnyl)phenyl)-5-(3-methoxyphenyl)oxazolidin-2-one]	> 30 µM
O=C1N[C@H](c2cccc(C#Cc3ccccc3)n2)[C@@H](c2ccc(F)cc2F)O1 (single isomer, unassigned) [Example 309]	< 0.1 µM
COc1cccc([C@H]2OC(=O)N[C@@H]2c2cccc(C#Cc3cccc(C(F)(F)F)c3)c2)c1 [Example 129, (4R,5R)-5-(3-methoxyphenyl)-4-(3-((3-(trifluoromethyl)phenyl)ethynyl)phenyl)oxazolidin-2-one]	> 1 µM
O=C1N[C@@H](c2cccc(C#Cc3ccccc3)c2)[C@H](c2cccnc2)O1 [Example 118, (4S,5S)-4-(3-(phenylethynyl)phenyl)-5-(pyridin-3-yl)oxazolidin-2-one]	> 1 µM
O=C1N[C@H](c2cncc(C#Cc3cccc(F)n3)c2)[C@@H](c2ccc(F)cc2)O1 [Example 216]	< 0.1 µM
O=C1N[C@@H](c2cccc(C#Cc3ccccc3)c2)[C@H](c2ccccc2F)O1 [Example 110, (4S,5S)-5-(2-fluorophenyl)-4-(3-(phenylethynyl)phenyl)oxazolidin-2-one]	> 1 µM
O=C1N[C@H](c2cncc(C#Cc3cccc(C(F)(F)F)c3)c2)[C@@H](c2cc(F)ccc2F)O1 [Example 386, (4R,5R)-5-(2,5-difluorophenyl)-4-(5-((3-(trifluoromethyl)phenyl)ethynyl)pyridin-3-yl)oxazolidin-2-one]	> 1 µM
O=C1N[C@H](c2cncc(C#Cc3ccccc3)c2)[C@@H](c2cc(Cl)ccc2Cl)O1 (single isomer, unassigned) [Example 326]	> 3 µM
N#Cc1ccc([C@H]2OC(=O)N[C@@H]2c2cncc(C#Cc3ccccc3)c2)cc1 [Example 365, 4-((4R,5R)-2-Oxo-4-(5-(phenylethynyl)pyridin-3-yl)oxazolidin-5-yl)benzonitrile]	< 0.1 µM
O=C1N[C@H](c2cncc(C#Cc3ccc(Cl)cc3)c2)[C@@H](c2cc(F)ccc2F)O1 [Example 388, (4R,5R)-4-(5-((4-chlorophenyl)ethynyl)pyridin-3-y1)-5-(2,5-difluorophenyl)oxazolidin-2-one]	0.1 to 1 µM
N#Cc1cccc(C#Cc2cncc([C@H]3NC(=O)O[C@@H]3c3cc(F)ccc3F)c2)c1 [Example 188]	> 1 µM
O=C1N[C@H](c2cc(C#Cc3ccc(C4CC4)nc3)cnc2F)[C@@H](c2ccc(F)cc2)O1 [Example 151, (4R,5R)-4-(5-((6-Cyclopropylpyridin-3-yl)ethynyl)-2-fluoropyridin-3-yl)-5-(4-fluorophenyl)oxazolidin-2-one]	> 1 µM
Cc1noc([C@@H]2OC(=O)N[C@H]2c2cccc(C#Cc3ccccc3)c2)n1 [Example 167]	> 1 µM
O=C1N[C@@H](c2cccc(C#Cc3ccccn3)n2)[C@H](c2ccccc2)O1 (single isomer, unassigned) [Example 25]	> 1 µM
O=C1N[C@H](c2ccnc(C#Cc3ccccn3)c2)[C@@H](c2ccccc2)O1 [Example 22, (4R,5R)-5-Phenyl-4-(2-(pyridin-2-ylethynyl)pyridin-4-yl)oxazolidin-2-one]	> 1 µM
COc1cncc(C#Cc2cccc([C@H]3NC(=O)O[C@@H]3c3cccc(OC)c3)c2)c1 [Example 49]	> 1 µM
O=C1N[C@H](c2ccnc(C#Cc3cccc(F)c3)c2)[C@@H](c2cccnc2)O1 [Example 252]	> 1 µM
COc1cccc([C@H]2OC(=O)N[C@@H]2c2cccc(C#Cc3cc(F)ccn3)c2)c1 [Example 193]	< 0.1 µM
COc1cccc([C@H]2OC(=O)N[C@@H]2c2cccc(C#Cc3ccc(C(F)(F)F)cc3)c2)c1 [Example 119, (4R,5R)-5-(3-methoxyphenyl)-4-(3-((4-(trifluoromethyl)phenyl)ethynyl)phenyl)oxazolidin-2-one]	> 1 µM
O=C1N[C@H](c2cncc(C#Cc3cncc(F)c3)c2)[C@@H](c2ccc(F)cc2F)O1 [Example 182]	< 0.1 µM
O=C1N[C@H](c2cncc(C#Cc3cccnc3)c2)[C@@H](c2ccc(F)cc2)O1 (single isomer, unassigned) [Example 43]	< 0.1 µM
O=C1N[C@H](c2cccc(C#Cc3ccc(F)cc3)n2)[C@@H](c2ccccc2)O1 (single isomer, unassigned) [Example 16]	< 0.1 µM
